In publication PMC6874406 (Journal of photochemistry and photobiology. A, Chemistry, 2019):
Read-outs that look alike come from different tables or passages of the source.

Assays:
[1] = target: T1, human serum albumin (HSA) (Homo sapiens, UniProt P02768); experiment: fluorescence titration; assay type: binding
[2] = target: T1, human serum albumin (HSA); experiment: fluorescence titration; assay type: binding; remark: listed apart in the source

T1 sequence (P02768 25-609): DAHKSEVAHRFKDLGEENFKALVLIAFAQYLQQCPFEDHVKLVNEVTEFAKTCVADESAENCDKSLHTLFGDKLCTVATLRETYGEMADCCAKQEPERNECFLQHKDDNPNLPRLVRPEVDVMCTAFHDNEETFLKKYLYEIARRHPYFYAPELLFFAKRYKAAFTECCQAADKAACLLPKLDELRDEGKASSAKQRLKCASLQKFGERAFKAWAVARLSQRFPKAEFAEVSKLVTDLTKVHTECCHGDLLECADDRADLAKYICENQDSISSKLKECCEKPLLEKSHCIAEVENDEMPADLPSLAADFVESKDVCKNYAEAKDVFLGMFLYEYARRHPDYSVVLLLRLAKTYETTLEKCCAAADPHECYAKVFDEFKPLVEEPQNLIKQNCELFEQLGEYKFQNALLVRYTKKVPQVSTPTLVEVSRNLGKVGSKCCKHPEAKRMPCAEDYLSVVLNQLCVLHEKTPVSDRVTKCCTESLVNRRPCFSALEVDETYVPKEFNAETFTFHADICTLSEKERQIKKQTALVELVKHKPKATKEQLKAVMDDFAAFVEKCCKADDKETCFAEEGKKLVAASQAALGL

Structure (SMILES)	Kd [1] [µM]	Kd [2] [µM]
COc1cc(/C=C/C2=C(C#N)C(=C(C#N)C#N)OC2(C)C)cc(OC)c1O [compound 1, (E)-2-(3-cyano-4-(4-hydroxy-3,5-dimethoxystyryl)-5,5-dimethylfuran-2(5H)-ylidene)malononitrile]	6.67	
CC1(C)OC(=C(C#N)C#N)C(C#N)=C1/C=C/c1ccc(O)cc1 [compound 2, fluorophore 2]		5.26
